Experimental data published in patent US20230233576A1, “ECLITASERTIB FOR USE IN TREATING CONDITIONS INVOLVING SYSTEMIC HYPERINFLAMMATORY RESPONSE” (priority 2020, published 2023).

System: adult participants hospitalized for severe COVID-19
Test: Phase 1b severe COVID-19 study: clinical laboratory abnormalities (PCSA)
Type: in vivo, human
Conditions: TEAE period
Method: Standard clinical laboratory parameters (hematology, blood chemistry) were measured per protocol.
For laboratory parameters (hematology, clinical chemistry, and urinalysis), vital signs, and ECG, incidences of potentially clinically significant abnormality (PCSA) values, actual values and change from baseline were summarized by treatment group.
For all laboratory, vital signs and ECG parameters, raw data and change from baseline were summarized in descriptive statistics by treatment group and scheduled time of measurement, with the exception of AST, ALT and alkaline phosphatase: instead of summarizing data in descriptive statistics, participants' profiles were presented through graphics by treatment group and with a color code to identify sites. The reason was that blood samples were processed by local laboratories with different normal ranges. For the rest of clinical laboratory these parameters it is reasonable to pool data as they are standard procedure and no significant differences in normal ranges were expected.

[1] = abnormal baseline (LLN/ULN or PCSA), 600 mg (N = 47), safety population
[2] = all baseline values counted in one unique group (as normal), 600 mg (N = 47), safety population
[3] = missing baseline, 600 mg (N = 47), safety population

CN1C(=O)[C@@H](NC(=O)c2nnc(Cc3ccccc3)[nH]2)COc2cccnc21 [RIPK1 Inhibitor, (S)-5-benzyl-N-(5-methyl-4-oxo-2,3,4,5-tetrahydropyrido[3,2-b][1,4]oxazepin-3-yl)-4H-1,2,4-triazole-3-carboxamide]
participants with ALT>3 ULN (600 mg): 9 participants
participants with ALT>5 ULN (600 mg): 1 participants
participants with AST>5 ULN (600 mg): 1 participants
participants with PCSAs of AST>3 ULN (600 mg): 2 participants
participants with alkaline phosphatase>1.5 ULN (600 mg): 2 participants
participants with total bilirubin>1.5 ULN (600 mg): One
PCSA Alanine Aminotransferase (ALT) >3 ULN [1]: 7/20
PCSA Alanine Aminotransferase (ALT) >5 ULN [1]: 0/20
PCSA Alanine Aminotransferase (ALT) >10 ULN [1]: 0/20
PCSA Alanine Aminotransferase (ALT) >20 ULN [1]: 0/20
PCSA Albumin ≤25 g/L [1]: 0/28
PCSA Alkaline Phosphatase >1.5 ULN [1]: 0/0
PCSA Aspartate Aminotransferase (AST) >3 ULN [1]: 1/24
PCSA Aspartate Aminotransferase (AST) >5 ULN [1]: 0/24
PCSA Aspartate Aminotransferase (AST) >10 ULN [1]: 0/24
PCSA Basophils >0.1 * 10^9/L [1]: 0/0
PCSA C-Reactive Protein >2 ULN or >10 mg/L (if ULN not provided) [1]: 42/46
PCSA Conjugated bilirubin >35% Bilirubin and Bilirubin >1.5 ULN [1]: 0/0
PCSA Creatinine Clearance (CG) <15 mL/min (end stage renal disease) [1]: 0/18
PCSA Creatinine Clearance (CG) ≥15-<30 mL/min (severe decrease in GFR) [1]: 0/18
PCSA Creatinine Clearance (CG) ≥30-<60 mL/min (moderate decrease in GFR) [1]: 4/18
PCSA Creatinine Clearance (CG) ≥60-<90 mL/min (mild decrease in GFR) [1]: 11/18
PCSA Creatinine ≥150 μmol/L (Adults) [1]: 1/8
PCSA Eosinophils >0.5 * 10^9/L or >ULN (if ULN ≥ 0.5 * 10^9/L) [1]: 0/9
PCSA Erythrocyte Count (RBC) ≥6 * 10^12/L [1]: 1/17
PCSA Glucose ≤3.9 mmol/L and <LLN [1]: 1/33
PCSA Glucose ≥11.1 mmol/L (unfasted); ≥7 mmol/L (fasted) [1]: 18/33
PCSA Hematocrit ≤0.37 v/v (Male); ≤0.32 v/v (Female) [1]: 11/17
PCSA Hematocrit ≥0.55 v/v (Male); ≥0.5 v/v (Female) [1]: 0/17
PCSA Hemoglobin ≤115 g/L (Male); ≤95 g/L (Female) [1]: 4/18
PCSA Hemoglobin ≥185 g/L (Male); ≥165 g/L (Female) [1]: 0/18
PCSA Lymphocytes >4 * 10^9/L [1]: 2/11
PCSA Monocytes >0.7 * 10^9/L [1]: 6/10
PCSA Neutrophils <1.5 * 10^9/L (Non-Black); <1 * 10^9/L (Black) [1]: 0/8
PCSA Platelet Count <100 * 10^9/L [1]: 1/11
PCSA Platelet Count ≥700 * 10^9/L [1]: 1/11
PCSA Potassium <3 mmol/L [1]: 0/7
PCSA Potassium ≥5.5 mmol/L [1]: 1/7
PCSA Sodium ≤129 mmol/L [1]: 0/8
PCSA Sodium ≥160 mmol/L [1]: 0/8
PCSA Total Bilirubin >1.5 ULN [1]: 0/2
PCSA Total Bilirubin >2 ULN [1]: 0/2
PCSA White blood cell count <3 * 10^9/L (Non-Black); <2 * 10^9/L (Black) [1]: 0/10
PCSA White blood cell count ≥16 * 10^9/L [1]: 1/10
PCSA Creatinine ≥30% change from baseline [2]: 3/47
PCSA Creatinine ≥100% change from baseline [2]: 0/47
PCSA Hemoglobin Decrease from baseline ≥20 g/L [2]: 4/47
PCSA Alanine Aminotransferase (ALT) >3 ULN [3]: 0/0
PCSA Alanine Aminotransferase (ALT) >5 ULN [3]: 0/0
PCSA Alanine Aminotransferase (ALT) >10 ULN [3]: 0/0
PCSA Alanine Aminotransferase (ALT) >20 ULN [3]: 0/0
PCSA Albumin ≤25 g/L [3]: 0/0
PCSA Alkaline Phosphatase >1.5 ULN [3]: 0/0
PCSA Aspartate Aminotransferase (AST) >3 ULN [3]: 0/0
PCSA Aspartate Aminotransferase (AST) >5 ULN [3]: 0/0
PCSA Aspartate Aminotransferase (AST) >10 ULN [3]: 0/0
PCSA C-Reactive Protein >2 ULN or >10 mg/L (if ULN not provided) [3]: 0/0
PCSA Conjugated bilirubin >35% Bilirubin and Bilirubin >1.5 ULN [3]: 0/1
PCSA Glucose ≤3.9 mmol/L and <LLN [3]: 0/3
